In patent publication US10016515B2, “DMA, a bis-benzimidazole, confers radioprotection to the intestine via Akt/NFκB dual pathway activation” (Jawaharlal Nehru University, priority 2016, dated 2018):

Legend:
HEK293 cells [1] = experiment: Cell-cycle analysis; type: cell-based, human
Experimental: The cell cycle analysis of Akt depleted HEK293 cells were done at 0, 1, 3, 6, 12, 18 and 24 h, washed twice with ice-cold PBS, and fixed in 70% ethanol. Cell pellets were stored at 4° C. for 24 h, and stained with 0.5 mL of propidium iodide (0.1% in 0.6% Triton X-100 in PBS) and 0.5 mL of RNase (2 mg/mL) for 30 min in dark. Samples were then analysed on a FACS Calibur flow-cytometer (Becton Dickinson).

MRC5 cells = experiment: Cytotoxicity by MTT assay; type: cell-based, human
Experimental: (§1) Exponentially growing HEK293, MRC5 and A549 cells were plated at cell densities 3000 cells per well in 96-well tissue culture plates. […] Cytotoxicity was measured by MTT assay according to the manufacturer's instructions (Promega, Madison, Wis., USA).

[2] = Cytotoxicity by MTT assay; type: cell-based, human; details: human
Experimental: as §1

A549 cells = experiment: Cytotoxicity by MTT assay; type: cell-based, human
Experimental: as §1

HEK293 cells [3] = experiment: Cytotoxicity by MTT assay; type: cell-based, human
Experimental: as §1

[4] = tested on: Balb/c mice spleen and small intestine; experiment: BrdU and IL6 immunohistochemistry; type: in vivo, mouse
Experimental: Spleen cell survival was determined 3 days after irradiation by 5-bromo-2′-deoxyuridine (BrdU, i.p., 100 mg/kg) to each mouse 2 h before euthanasia. Similarly small intestine was checked for IL6 expression. BrdU and IL6 immunohistochemistry (IHC) were performed as per standard protocol against BrdU and IL6. 3,3,-diaminobenzidine (DAB) was used to detect antigen-antibody binding. Counterstaining was done with hematoxylin, and after dehydration, slides were mounted with glycerogelatin.

[5] = tested on: NFκB Δp65− A549 and scramble A549 cells; experiment: Clonogenicity assay of NFκB p65 knockdown A549 cells; type: cell-based, human
Experimental: 0.8-1×10^6 A549 cells were seeded with media containing 8 μg/ml polybrene. Cells were infected with 0.5 ml lentivirus in fresh media containing polybrene and were incubated for next 24 h. Desired cells were selected against puromycin. NFκB p65 protein knockdown was checked by western blot after 3 days of selection media.
Exponentially growing scrambled and NFκB p65 knockdown A549 cells were treated with 50 μM DMA for 2 h and irradiated with 0, 2, 4, 6 and 8 Gy of radiation dose for clonogenic survival assay. % Radioprotection was calculated by following formula % of Protection in radiation treated cells=(SF(Δp65−)+DMA/SF(Δp65−))×100 where SF is survival fraction in respective conditions.

HEK293 cells [6] = experiment: Proliferation kinetics in presence of inhibitors; type: cell-based, human
Experimental: HEK293 cells post 50 μM LY294002 (PI3K/Akt inhibitor) and 10 μM PS1145 (NFκB inhibitor) treatment were treated with 50 μM DMA and 5 Gy radiation. Same experiment was done with control (no inhibitor), only LY294002 and only PS1145 treated HEK cells. Percentage (%) radioprotection of cells at 24, 48 and 72 h was calculated by following formula— % growth of Radiation treated cells=(CNRadiation/CNControl)×100. % growth of DMA+Radiation treated cells=(CNDMA+Radiaion/CNControl)×100. % Radioprotection=% growth of DMA+Radiation treated cells−% growth of Radiation treated cells where CN is the cell number.

[7] = tested on: Akt/NFκB pathway in HEK293, MRC5 and A549 cell lines; experiment: Immunoblot analysis in cell lines; type: cell-based, human
Experimental: HEK293, MRC5 and A549 cells were treated as indicated earlier. The cell pellet was resuspended in RIPA buffer and allowed to swell on ice for 30 min. Balb/c intestine tissue and tumor tissues were homogenized in RIPA buffer. Protein concentration was determined using Bradford's Assay (Bangalore Genei). Western blot was performed using standard protocols with primary antibodies against Akt, pAkt (Ser-473), […], mTOR, p70, Bad, PTEN, IKKα/β, p IKKα/β, p53, Bcl2, GAPDH, and NFκB (p65) (Cell Signalling) and horseradish peroxidase-conjugated mouse or rabbit secondary antibody (Abcam). Signals were detected using enhanced chemiluminescence (ECL system, Pierce) on X-ray film.
Cells after treatment were collected by trypsinization and washed twice with ice-cold PBS. Cell pellet was resuspended in five volumes of cytoplasmic extraction buffer (CEB) [10 mM HEPES pH 7.9, 10 mM KCl, 0.1 mM EDTA, 0.3% NP-40 and 1× protease inhibitor cocktail] to the size of cell pellet for 5 min. Protein solution was centrifuged at 3000 rpm for 5 min at 4° C. and supernatant was harvested as cytoplasmic extract.
The cell pellet obtained after extraction of cytoplasmic proteins was resuspended again in CEB without NP-40. It was centrifuged at 3000 rpm for 5 min at 4° C. and supernatant was discarded. Equal volume of nuclear extraction buffer (NEB) [20 mM HEPES pH7.9, 0.4M NaCl, 1 mM EDTA, 25% Glycerol, and 1× protease inhibitor cocktail] was added to nuclear pellet and incubated on ice for 10 min. Supernatant was harvested as nuclear protein extract.

[8] = DMA+Radiation vs irradiated mice
[9] = DMA+Radiation, all three cell lines

SMILES: COc1ccc(-c2nc3cc(-c4nc5cc(N6CCN(C)CC6)ccc5[nH]4)ccc3[nH]2)cc1OC [DMA, 5-(4-methylpiperazin-1-yl)-2-[2′-(3,4-dimethoxyphenyl)-5′-benzimidazolyl]benzimidazole]
- G2 check point (HEK293 cells [1]; HEK293, DMA 50 μM alone): no significant G2 check point
- G2-M progression (HEK293 cells [1]; HEK293, DMA+Radiation (5Gy), 18 h): significant G2-M delay
- IC50 at short term incubation (MRC5 cells; MRC5, 50 μM DMA, 2 h): no observable IC50
- IC50 at short term treatment (MRC5 cells; MRC5, DMA at 509 μM for 2 h): no observable IC50
- IC50 ([2]; A549 cells, A549, 1-100 μM, up to 72 h): > 100 µM
- IC50 at 24 h ([2]; MRC5 cells, MRC-5 cells, 24 h): 92.5 µM
- IC50 at short term incubation (A549 cells; A549, 50 μM DMA, 2 h): no observable IC50
- IC50 (cytotoxicity) (A549 cells; A549, 1-100 μM, up to 72 h): could not be achieved
- IC50 at short term treatment (A549 cells; A549, DMA at 509 μM for 2 h): no observable IC50
- Concentration at which DMA was cytotoxic (HEK293 cells [3]; HEK293): 50 µM
- IC50 at short term incubation (HEK293 cells [3]; HEK293, 50 μM DMA, 2 h): no observable IC50
- IC50 at short term treatment (HEK293 cells [3]; HEK293, DMA for 2 h): no observable IC50
- IL6 level in small intestine (IHC) ([4]; DMA only treated mice): almost equal to control mice
- BrdU-positive cells (IHC) [4, 8]: more BrdU-positive cells
- IL6 level in small intestine (IHC) [4, 8]: higher level of IL6
- DMF ([5]; NFκB Δp65− A549, 50 μM DMA 2 h): 1.02
- DMF ([5]; scrambled sequence transfected A549, 50 μM DMA 2 h): 1.28
- % radioprotection by DMA (HEK293 cells [6]; LY294002 and PS1145 simultaneously, 24 h): 3%
- % radioprotection by DMA (HEK293 cells [6]; LY294002 and PS1145 simultaneously, 48 h): 2.2%
- % radioprotection by DMA (HEK293 cells [6]; LY294002 and PS1145 simultaneously, 72 h): 2%
- % radioprotection by DMA (HEK293 cells [6]; LY294002 treated cells, 24 h): 15%
- % radioprotection by DMA (HEK293 cells [6]; LY294002 treated cells, 48 h): 10%
- % radioprotection by DMA (HEK293 cells [6]; LY294002 treated cells, 72 h): 4%
- % radioprotection by DMA (HEK293 cells [6]; PS1145 treated cells, 24 h): 4%
- % radioprotection by DMA (HEK293 cells [6]; PS1145 treated cells, 48 h): 3.5%
- % radioprotection by DMA (HEK293 cells [6]; PS1145 treated cells, 72 h): 2.4%
- % radioprotection by DMA (HEK293 cells [6]; no inhibitor, 50 μM DMA, 5 Gy, 24 h): 40%
- % radioprotection by DMA (HEK293 cells [6]; no inhibitor, 50 μM DMA, 5 Gy, 48 h): 35%
- % radioprotection by DMA (HEK293 cells [6]; no inhibitor, 50 μM DMA, 5 Gy, 72 h): 16%
- NFκB p65 level ([7]; DMA+Radiation vs control and irradiated): increased level
- Level of phosphorylated Akt (Ser-473) ([7]; DMA+Radiation, HEK293, MRC5 and A549): increased
- IκBα protein level [7, 9]: decrease
- Phosphorylation of IKKα and IKKβ [7, 9]: higher
- NFκB p65 in cytoplasm and nucleus ([7]; HEK293 cytoplasmic and nuclear extract, DMA prior to radiation): higher expression
- PTEN, mTOR and p70 levels ([7]; all three cell lines): could not address any significant changes
- Phosphorylated GSK3β ([7]; prior DMA treatment to radiation, all three cell lines): increase
